Experimental data: US10464882B2, “Y-type discrete polyethylene glycol derivative and preparation method thereof” (JENKEM TECHNOLOGY CO., LTD. (BEIJING), priority 2015, dated 2019)
Where two headings read alike, the source gives them in different places.

Experiments:
[1] = Comparison test of solubility of cholesterol derivatives in water (Chinese pharmacopoeia method); assay type: physicochemical
Description: The solubility of cholesterol derivatives in water was determined according to the method in “Chinese pharmacopoeia”: […] After 30 min, 1.5 mL water was further added, and the resulting mixture was placed in a 20° C. water bath with the same procedure for dissolution. Until 9 mL water was added, the solution was clear. […] After 30 min, 5 mL water was further added, and the resulting mixture was placed in a 20° C. water bath with the same procedure for dissolution until 25 mL water was added. 5 mL solution was taken from the dilute solution, the same procedure was carried out until 10 mL water was added, and the solution was clear.

[2] = Comparison test of dispersion of cholesterol and cholesterol derivatives in water; assay type: physicochemical; details: 20 mg in 50 mL water, 20° C. water bath, shaken vigorously every 5 min for 30 min

Row | solubility in water [1] | dispersion in water, naked eye observation [2] | solubility in water ([1]; water, 20° C. water bath, shaken every 5 min for 30 min) | Compound
1 | 4.61 mg/100 g | white emulsion | – | COCCOCCOCCOCCOCCOCCOCCOC(=O)O[C@H]1CC[C@@]2(C)C(=CC[C@H]3[C@@H]4CC[C@H]([C@H](C)CCCC(C)C)[C@@]4(C)CC[C@@H]32)C1 [cholesterol derivative of mEG7-OH]
2 | – | completely insoluble | < 0.2 mg/100 g | CC(C)CCC[C@@H](C)[C@H]1CC[C@H]2[C@@H]3CC=C4C[C@@H](O)CC[C@]4(C)[C@H]3CC[C@]12C [cholesterol]
